# Measured values reported in US20250179045A1, “LPAR1 ANTAGONISTS AND USES THEREOF” (Contineum Therapeutics, Inc., priority 2021, published 2025).
# Target: human LPA1 (Homo sapiens, UniProt Q92633)
# Experiment: In vitro functional assay of lysophosphatidic acid receptor 1 activity (calcium flux)
# Type: cell-based
# Conditions: B103 cells stably expressing human LPA1; Fluo-4 NW calcium flux after lysophosphatidic acid (18:1) at EC80; compounds 100 pM to 10 μM; read-out: LPA1 IC50
# Method: In vitro functional assay of lysophosphatidic acid receptor 1 activity
# Primary compound plates were prepared in 100% DMSO (Sigma-Aldrich), secondary compound plates were prepared at 10× concentration in DiVEM (Invitrogen), and tertiary compound plates were prepared at 3x concentration in assay buffer containing HBSS (no Ca^+2/Mg^+2, Invitrogen) and 0.1% BSA (Sigma-Aldrich). Fluo-4 NW calcium assay dye (Invitrogen) was prepared as per manufacturer's recommendations in assay buffer. B103 cells stably expressing human LPA1(J. Chun lab, UCSD) were grown to confluency in DMEM media (Invitrogen) containing 10% FBS (ATCC), […] (Sigma-Aldrich) and […] Geneticin (Sigma-Aldrich), and detached with Accutase (Sigma-Aldrich) prior to assay. The freshly detached cells were resuspended in growth media and plated in black, clear-bottom 96-well plates (Costar) containing compound (i.e., secondary compound plate) at a density of 5×10^4 cells/well. Once plated, cells were left at room temperature for 30 minutes and then transferred to a 37° C., […] incubator for 24 hours. After 24 hours, the growth media was then removed and freshly prepared Fluo-4 NW calcium assay dye was added to cells. Compounds (i.e. tertiary compound plates) were then added back to the dye/cells, returned to the incubator for 30 minutes, and then kept at room temperature for an additional 30 minutes. Finally, lysophosphatidic acid (18:1) at the EC80 concentration was added and calcium flux measured using FlexStation 3 (Molecular Devices). Sigmoidal dose-response curves were generated by measuring […] over 45 sec and calculating the area under the curve. Dose response curves and IC50 values were generated using Prism (GraphPad). Compounds were tested at a final concentration range of 100 pM to 10 μM in 0.10% DMSO.
# Chain of human LPA1 (Q92633 whole entry): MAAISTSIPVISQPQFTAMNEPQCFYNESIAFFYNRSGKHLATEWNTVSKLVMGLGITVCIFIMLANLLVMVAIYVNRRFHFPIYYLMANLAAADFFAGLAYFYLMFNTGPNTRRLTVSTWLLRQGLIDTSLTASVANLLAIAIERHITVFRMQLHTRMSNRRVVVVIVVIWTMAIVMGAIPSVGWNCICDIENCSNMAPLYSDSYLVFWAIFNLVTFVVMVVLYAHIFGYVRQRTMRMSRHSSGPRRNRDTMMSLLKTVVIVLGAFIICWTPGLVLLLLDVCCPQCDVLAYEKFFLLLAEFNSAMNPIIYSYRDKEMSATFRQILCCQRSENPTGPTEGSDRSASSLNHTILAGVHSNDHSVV
row,Compound,IC50
1,"COc1ccc(NC(=O)C2(c3ccccc3C(C)C)CCC(O)CC2)c(OC(F)F)n1 (mixture of isomers) [Example 81, N-(2-(difluoromethoxy)-6-methoxypyridin-3-yl)-4-hydroxy-1-(2-isopropylphenyl)cyclohexane-1-carboxamide]",10 to 100 nM
2,"Cc1cc(OC(F)F)c(NC(=O)C2(c3ccccc3C(C)C)CC(O)(C(F)(F)C(=O)O)C2)cn1 (single isomer, unassigned) [Example 94-isomer B, 2-(3-((4-(difluoromethoxy)-6-methylpyridin-3-yl)carbamoyl)-1-hydroxy-3-(2-isopropylphenyl)cyclobutyl)-2,2-difluoroacetic acid]",10 to 100 nM
3,"COc1ccc(NC(=O)C2(c3ccccc3C(C)C)CCC(C#N)CC2)c(OC(F)F)n1 (mixture of isomers) [Example 95, 4-cyano-N-(2-(difluoromethoxy)-6-methoxypyridin-3-yl)-1-(2-isopropylphenyl)cyclohexane-1-carboxamide]",10 to 100 nM
4,"Cc1ccc(NC(=O)C2(c3ccccc3C(C)C)CC(C)(O)C2)c(OC(F)F)n1 (single isomer, unassigned) [Example 51-isomer A, N-(2-(difluoromethoxy)-6-methylpyridin-3-yl)-3-hydroxy-1-(2-isopropylphenyl)-3-methylcyclobutane-1-carboxamide]",100 to 1000 nM
5,"COc1ccc(NC(=O)C2(c3ccccc3C(C)C)CNC(=O)C2)c(OC)n1 (stereo not drawn) [Example 103, N-(2,6-dimethoxypyridin-3-yl)-3-(2-isopropylphenyl)-5-oxopyrrolidine-3-carboxamide]",100 to 1000 nM
6,"Cc1ccc(NC(=O)C2(c3ncccc3C(C)C)COC2)c(OC(F)F)n1 [Example 37, N-(2-(difluoromethoxy)-6-methylpyridin-3-yl)-3-(3-isopropylpyridin-2-yl)oxetane-3-carboxamide]",100 to 1000 nM
7,"COc1ccc(NC(=O)C2(c3ccccc3C(C)C)CC(O)(C(F)(F)C(=O)O)C2)c(OC(F)F)n1 (single isomer, unassigned) [Example 54-isomer A, 2-(3-((2-(difluoromethoxy)-6-methoxypyridin-3-yl)carbamoyl)-1-hydroxy-3-(2-isopropylphenyl)cyclobutyl)-2,2-difluoroacetic acid]",< 10 nM
8,"CC(C)c1ccccc1C1(C(=O)Nc2ccc(F)cc2OC(F)F)COC1 [Example 27, N-(2-(difluoromethoxy)-4-fluorophenyl)-3-(2-isopropylphenyl)oxetane-3-carboxamide]",10 to 100 nM
9,"COc1ccc(NC(=O)C2(c3ccccc3C(C)C)CCC(S(=O)(=O)N(C)C)CC2)c(OC(F)F)n1 (mixture of isomers) [Example 98, N-(2-(difluoromethoxy)-6-methoxypyridin-3-yl)-4-(N,N-dimethylsulfamoyl)-1-(2-isopropylphenyl)cyclohexane-1-carboxamide]",100 to 1000 nM
10,"CC(C)c1ccccc1C1(C(=O)Nc2ncc(Cl)cc2OC(F)F)CC(=O)N(C)C1 (single isomer, unassigned) [Example 7, N-(5-chloro-3-(difluoromethoxy)pyridin-2-yl)-3-(2-isopropylphenyl)-1-methyl-5-oxopyrrolidine-3-carboxamide]",100 to 1000 nM
11,"COC[C@H](C)Oc1nc(OC)ccc1NC(=O)C1(c2ccccc2C(C)C)COC1 [Example 31, (S)-3-(2-isopropylphenyl)-N-(6-methoxy-2-((1-methoxypropan-2-yl)oxy)pyridin-3-yl)oxetane-3-carboxamide]",10 to 100 nM
12,"COc1ccc(NC(=O)C2(c3ccccc3C(C)C)CC(Cc3nnn[nH]3)C2)c(OC(F)F)n1 (stereo not drawn) [Example 113, 3-((1H-tetrazol-5-yl)methyl)-N-(2-(difluoromethoxy)-6-methoxypyridin-3-yl)-1-(2-isopropylphenyl)cyclobutane-1-carboxamide]",< 10 nM
13,"CNC1CC(C(=O)Nc2ccc(C)nc2OC(F)F)(c2ccccc2C(C)C)C1 (mixture of isomers) [Example 38, N-(2-(difluoromethoxy)-6-methylpyridin-3-yl)-1-(2-isopropylphenyl)-3-(methylamino)cyclobutane-1-carboxamide]",100 to 1000 nM
14,"COc1cc(C)ncc1NC(=O)C1(c2ccccc2C(C)C)COC1 [Example 36, 3-(2-isopropylphenyl)-N-(4-methoxy-6-methylpyridin-3-yl)oxetane-3-carboxamide]",> 1000 nM
15,"COc1ccc(NC(=O)C2(c3ccccc3C(C)C)CCC(NC(C)=O)CC2)c(OC(F)F)n1 (mixture of isomers) [Example 85, 4-acetamido-N-(2-(difluoromethoxy)-6-methoxypyridin-3-yl)-1-(2-isopropylphenyl)cyclohexane-1-carboxamide]",100 to 1000 nM
16,"Cc1ccc(NC(=O)C2(c3ccccc3C(C)C)CC(CS(C)(=O)=O)C2)c(OC(F)F)n1 (stereo not drawn) [Example 64, N-(2-(difluoromethoxy)-6-methylpyridin-3-yl)-1-(2-isopropylphenyl)-3-((methylsulfonyl)methyl)cyclobutane-1-carboxamide]",100 to 1000 nM
17,"COc1ccc(NC(=O)[C@]2(c3ccccc3C(C)C)C[C@@H](CC(N)=O)C2)c(OC(F)F)n1 [Example 118, trans-3-(2-amino-2-oxoethyl)-N-(2-(difluoromethoxy)-6-methoxypyridin-3-yl)-1-(2-isopropylphenyl)cyclobutane-1-carboxamide]",10 to 100 nM
18,"CCC1(O)CC(C(=O)Nc2ccc(C)nc2OC(F)F)(c2ccccc2C(C)C)C1 (stereo not drawn) [Example 52, N-(2-(difluoromethoxy)-6-methylpyridin-3-yl)-3-ethyl-3-hydroxy-1-(2-isopropylphenyl)cyclobutane-1-carboxamide]",10 to 100 nM
19,"COc1ccc(NC(=O)C2(c3ccccc3C(C)C)CCC(C)(O)CC2)c(OC(F)F)n1 (single isomer, unassigned) [Example 83-isomer A, N-(2-(difluoromethoxy)-6-methoxypyridin-3-yl)-4-hydroxy-1-(2-isopropylphenyl)-4-methylcyclohexane-1-carboxamide]",> 1000 nM
20,"Cc1ccc(NC(=O)C2(c3ccccc3C(C)C)CC(O)C2)c(OC(F)F)n1 (stereo not drawn) [Example 58, N-(2-(difluoromethoxy)-6-methylpyridin-3-yl)-3-hydroxy-1-(2-isopropylphenyl)cyclobutane-1-carboxamide]",100 to 1000 nM
21,"COc1ccc(NC(=O)C2(c3ccccc3C(C)C)CC(CC#N)C2)c(OC(F)F)n1 (stereo not drawn) [Example 111, 3-(cyanomethyl)-N-(2-(difluoromethoxy)-6-methoxypyridin-3-yl)-1-(2-isopropylphenyl)cyclobutane-1-carboxamide]",10 to 100 nM
22,"CC(C)c1ccccc1C1(C(=O)Nc2ccc(Cl)cn2)CC(O)(C(F)(F)C(=O)O)C1 (single isomer, unassigned) [Example 93-isomer B, 2-(3-((5-chloropyridin-2-y1)carbamoyl)-1-hydroxy-3-(2-isopropylphenyl)cyclobutyl)-2,2-difluoroacetic acid]",100 to 1000 nM
23,"Cc1ccc(NC(=O)C2(c3ccccc3C(C)C)CC(C(=O)O)C2)c(OC(F)F)n1 (stereo not drawn) [Example 65, 3-((2-(difluoromethoxy)-6-methylpyridin-3-yl)carbamoyl)-3-(2-isopropylphenyl)cyclobutane-1-carboxylic acid]",10 to 100 nM
24,"Cc1ccc(NC(=O)C2(c3ccccc3C(C)C)CC(F)(F)C2)c(OC(F)F)n1 [Example 61, N-(2-(difluoromethoxy)-6-methylpyridin-3-yl)-3,3-difluoro-1-(2-isopropylphenyl)cyclobutane-1-carboxamide]",> 1000 nM
